Data: patent US10849901B2, “Arf6 inhibitors and methods of synthesis and use thereof” (Navigen, Inc., priority 2014, dated 2020)
“Also recorded” adds a separate entry of the source. Like-named read-outs stand apart in the source and are kept apart here.

What was measured:
[1] = system: LPS-induced acute lung injury; assay: LPS-induced acute lung injury in mice (BALF analysis); format: in vivo; settings: 24 hours after LPS, Compound 38 60 mg/kg, dexamethasone 5 mg/kg
Protocol: In the experiment, LPS (5 mg/kg) was given by intra-tracheal instillation. Dexamethasone (5 mg/kg) was given as a positive control 2 hours after the LPS. Bronchoalveolar fluid (BALF) was analyzed for cell count and protein 24 hours after the LPS.

[2] = system: VEGF-induced retinal permeability; assay: VEGF-induced retinal permeability in mice (Evans blue dye); format: in vivo
Protocol: (§1) In the experiment, VEGF (50 ng) and either Compound 38 or 65 (500 ng) or NAV-3745 (500 ng) were given to mice in a single intraocular injection. Evans blue dye (EBD) was given via IV approximately 6 hours after the injection, and the retinas were harvested after an additional 2 hours. Retinal permeability was measured on Day 2 after an overnight extraction of EBD in formamide, at OD 620-740 nm.
as §1, with “the test compound” for “either Compound 38 or 65 (500 ng) or NAV-3745 (500 ng)”, “injection. Avastin was given at a dose of 20 μg, Compound 38 at either 50 ng or 500 ng (as noted in FIG. 7), and SU4312 at 5 μg. As with the previous experiment,” for “injection.”

[3] = system: VEGF-induced retinal permeability; assay: VEGF-induced retinal permeability in rats (Evans blue dye); format: in vivo
Protocol: In the experiment, VEGF (500 ng) and Avastin (200 μg) were given to rats in a single intraocular injection on Day 1. Compound 38 (60 mg/kg) was administered by IP injection 1 hour prior to VEGF on Day 1. Rats were given Evans blue dye (EBD) via IV infusion on Day 2, and the retinas were harvested after an additional 1.5 hours. The retinas were dissected and incubated overnight in formamide. Vascular leak was calculated on Day 3.

[4] = molecular target: Arf6 (Homo sapiens (Human), UniProt P62330); assay: Fluorometric assay for Arf6 nucleotide exchange catalyzed by ARNO Sec7 domain (GTP-BODIPY FL); format: biochemical
Chain of Arf6 (Homo sapiens (Human), UniProt P62330) (P62330 14-175): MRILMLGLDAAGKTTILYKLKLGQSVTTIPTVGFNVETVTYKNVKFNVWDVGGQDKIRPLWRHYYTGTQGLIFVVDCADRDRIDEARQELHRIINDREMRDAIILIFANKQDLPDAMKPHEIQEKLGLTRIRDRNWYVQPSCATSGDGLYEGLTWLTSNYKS

[5] = molecular target: Arf6 (Mus musculus (Mouse), UniProt P62331); assay: Arf6 pulldown assay (GTP-bound Arf6, GST-Gga3, Western blot); format: cell-based; settings: NIH3T3 cells, 4 hours incubation
Chain of Arf6 (Mus musculus (Mouse), UniProt P62331) (P62331 whole entry): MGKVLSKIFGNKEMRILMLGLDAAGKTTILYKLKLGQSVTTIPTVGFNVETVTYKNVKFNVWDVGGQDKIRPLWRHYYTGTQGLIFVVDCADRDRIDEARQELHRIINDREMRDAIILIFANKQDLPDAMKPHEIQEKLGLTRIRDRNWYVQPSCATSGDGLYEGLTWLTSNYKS
Protocol: The cell cultures were incubated in the presence of test compounds for 4 hours followed by pull-down of GTP-bound Arf6 from cell lysates using recombinant GST-Gga3 immobilized on glutathione agarose and Western blot analysis.
Arf6 pulldown assay: Assessment of intracellular levels of active Arf6 may be a direct mechanism-based approach for monitoring on-target cellular activities of active Arf6 inhibitors. A commercially available pull-down technique, which relies on recombinant Gga3 protein as a sensor of the GTP-bound state for the members of Arf protein family, can be employed for this purpose (see, e.g., Shiba T, Kawasaki M, Takatsu H, Nogi T, Matsugaki N, Igarashi N, Suzuki M, Kato R, Nakayama K, Wakatsuki S. Molecular mechanism of membrane recruitment of GGA by ARF in lysosomal protein transport. Nat Struct Biol. 2003 May; 10(5):386-93).
The vendor's procedure was modified from 10-cm culture dish to 24-well plate format and adapted to a number of different cell lines, including cultured mouse embryonic fibroblasts NIH 3T3 due to its robust response to Arf6 inhibitors observed in the proof-of-principle studies (see FIG. 2).

[6] = system: LOX melanoma cells; assay: Cell invasion assay (Matrigel Invasion Chambers); format: cell-based
Excerpt: Cell invasion assay: This assay uses Matrigel Invasion Chambers (BD Biosciences) and monitors cell penetration through 8.0 μm filters coated with a solubilized basement membrane matrix, which serves as barrier for non-invading cells (see, e.g., Albini A, Iwamoto Y, Kleinman H K, Martin G R, Aaronson S A, Kozlowski J M, McEwan R N. A rapid in vitro assay for quantitating the invasive potential of tumor cells. Cancer Res. 1987 Jun. 15; 47(12):3239-45).

[7] = system: LOX melanoma cells; assay: Cell proliferation assay (WST-8), LOX; format: cell-based; settings: concentrations greater than 1 μM
Excerpt: (§2) Cell proliferation assay: This assay employs WST-8 colorimetric readout (Dojindo) and relies on the total activity of mitochondrial dehydrogenases as a measure of the number of viable cells over time.

[8] = system: LN-229 glioblastoma cells; assay: Cell proliferation assay (WST-8), LN-229; format: cell-based; settings: concentrations greater than 1 μM
Excerpt: as §2

[9] = system: Choroidal Neovascularization (CNV); assay: Laser-induced choroidal neovascularization (CNV) in mice; format: in vivo; settings: 5 μg, 0.5 μg and 0.05 μg on Days 0 and 7, measured Day 14
Protocol: In the experiment on Day 0, the Bruch's membrane of each eye was disrupted with a laser. On Days 0 and 7, test compounds were administered, and on Day 14, the area of CNV was measured. Commercially available compound SU4312 was used as a positive control. Compound 38 was dosed at 5 μg, 0.5 μg, and 0.05 μg, as noted in FIG. 9.

[10] = system: oxygen-induced retinopathy; assay: Oxygen-induced retinopathy (OIR) in mice; format: in vivo; settings: 5 μg intraocular Days 12 and 15, measured Day 17
Protocol: In the experiment, mice pups were placed in a 75% oxygen environment from Days 5-12. The mice were returned to a normal oxygen environment on Day 13. The test compounds were administered (5 μg) by intraocular injection on Days 12 and 15, and the area of neovascularization was measured on Day 17. Compound 38 was compared with SU4312 in oxygen-induced retinopathy (OIR) in mice (see FIG. 11). […]

[11] = system: collagen-induced arthritis; assay: Mouse model of collagen-induced arthritis; format: in vivo; settings: mice, 14 days; Compound 4 10, 30, 60 mg/kg BID; Enbrel 10 mg/kg QD
Protocol: In the experiment, mice were immunized with collagen on Days 1 and 21, and randomized to treatment groups on or around Day 28, then subject to fourteen days of treatment with a test compound. Vehicle (●), Compound 4 at 10 mg/kg (▴), Compound 4 at 30 mg/kg (▾), Compound 4 at 60 mg/kg (♦), or Enbrel (▪; 10 mg/kg) was given. Compound 4 was given twice daily (BID); Enbrel was given once daily (QD); and vehicle was given twice daily (BID).

[12] = system: H1N1 virus; settings: IP QD five days; Compound 65 20 mg/kg, ribavirin 75 mg/kg
[13] = 20 nM Arf6 assay, read-out: IC50 (μM) 20 nM Arf6
[14] = 200 nM Arf6 assay, read-out: IC50 (μM) 200 nM Arf6
[15] = mice, 500 ng single intraocular injection with VEGF 50 ng (FIG. 6)

C[C@@H]1C[C@H]2[C@@H]3CCC4=CC(=O)C=C[C@]4(C)[C@@]3(F)[C@@H](O)C[C@]2(C)[C@@]1(O)C(=O)CO [dexamethasone, Dexamethasone, reference compound]
number of cells in the lung fluid (BALF) [1]: reduced the number of cells
protein concentration in the lung fluid (BALF) [1]: reduced

Avastin
VEGF-induced retinal permeability ([2]; mouse, not told): reduced VEGF-induced retinal permeability
VEGF-induced retinal permeability ([3]; rat, not told, ip, 60 mg/kg): reduced VEGF-induced retinal permeability

O=c1cc(-c2ccc([N+](=O)[O-])cc2)[nH]c2c(-c3ccc(Cl)cc3)c(Cc3ccccc3)nn12 [Compound 38]
IC50 [4, 13]: 1.8 µM
IC50 [4, 14]: 1.4 µM
Inhibition of Arf6 activation (GTP-bound Arf6) [5]: Inhibition of Arf6 activation
FBS-induced LOX cell invasion through Matrigel ([6]; 1 μM): substantially inhibit, or completely inhibit
inhibition of melanoma cell invasion ([6]; LOX melanoma cells): can inhibit invasion; also recorded: more potent inhibitor of melanoma cell invasion than SecinH3
inhibition of LOX cell proliferation [7]: can inhibit proliferation; also recorded: potent inhibitor
inhibition of LN-229 cell proliferation [8]: can inhibit proliferation; also recorded: potent inhibitor
VEGF-induced retinal permeability [2, 15]: reduced VEGF-induced retinal permeability
VEGF-induced retinal permeability ([2]; mice, single intraocular injection, Compound 38 50 ng or 500 ng, Avastin 20 μg, SU4312 5 μg (FIG. 7)): reduced VEGF-induced retinal permeability
VEGF-induced retinal permeability ([3]; rats, Compound 38 60 mg/kg IP, Avastin 200 μg intraocular (FIG. 8)): reduced VEGF-induced retinal permeability
area of CNV [9]: reduced the area of CNV in a dose-dependent manner
area of neovascularization [10]: reduced the area of neovascularization
number of cells in the lung fluid (BALF) [1]: reduced the number of cells
protein concentration in the lung fluid (BALF) [1]: reduced

O=c1cc(-c2cccc(Oc3ccccc3)c2)[nH]c2c(-c3ccc(Cl)c(Cl)c3)c(C(F)(F)F)nn12 [Compound 4]
IC50 [4, 13]: 0.52 µM
IC50 [4, 14]: 0.46 µM
area of neovascularization [10]: reduced the area of neovascularization
inflammation as measured by the arthritic index [11]: reduced inflammation

COc1ccc(-c2c(Cc3ccccc3)nn3c(=O)cc(C)[nH]c23)cc1 [NAV-3745, reference compound]
VEGF-induced retinal permeability [2, 15]: no effect

O=c1cc(Cc2ccccc2)[nH]c2c(-c3ccc(Cl)cc3)c(C(F)(F)F)nn12 [Compound 65]
IC50 [4, 13]: 3.7 µM
IC50 [4, 14]: 4.9 µM
VEGF-induced retinal permeability [2, 15]: reduced VEGF-induced retinal permeability
mortality of mice infected with H1N1 virus [12]: reduced the mortality of mice nearly as well as ribavirin

Enbrel
inflammation as measured by the arthritic index [11]: reduced inflammation

Cc1nn2c(=O)cc(-c3ccc(NC(=O)NCc4ccccc4)cc3)[nH]c2c1-c1ccc(Cl)cc1 [Compound 42]
IC50 [4, 13]: 2.1 µM

O=c1cc(-c2ccc([N+](=O)[O-])cc2)[nH]c2c(-c3ccc(Cl)cc3)c(C(F)(F)F)nn12 [Compound 33]
IC50 [4, 13]: 1.6 µM
IC50 [4, 14]: 2.6 µM

CCOc1ccc(-c2nn(-c3ccccc3)cc2/C=C2\SC(=S)N(CCC(=O)O)C2=O)cc1C [Compound 116]
IC50 [4, 14]: 1.4 µM

O=c1cc(-c2cccc([N+](=O)[O-])c2)[nH]c2c(-c3ccc(Cl)cc3)c(C(F)(F)F)nn12 [Compound 21]
IC50 [4, 13]: 1.2 µM

O=c1cc(-c2ccc([N+](=O)[O-])cc2)[nH]c2c(-c3ccc(Cl)cc3)c(C3CCOCC3)nn12 [Compound 77]
IC50 [4, 13]: 5.1 µM

Cc1nn2c(=O)cc(-c3ccc([N+](=O)[O-])cc3)[nH]c2c1-c1ccc(Oc2ccccc2)cc1 [Compound 30]
IC50 [4, 13]: 1.5 µM

O=c1cc(-c2ccccc2)[nH]c2c(-c3ccc(Cl)cc3)c(Cc3ccccc3)nn12 [Compound 29]
IC50 [4, 13]: 1.5 µM
IC50 [4, 14]: 3.3 µM

CC(C)(C)c1nn2c(=O)cc(-c3cccc(C(=O)O)c3)[nH]c2c1-c1ccc(Cl)cc1 [Compound 86]
IC50 [4, 13]: 6.6 µM

SU4312 [reference compound]
VEGF-induced retinal permeability ([2]; mouse, not told): little effect
area of neovascularization [10]: reduced the area of neovascularization

CC(C)CC(=O)Nc1cccc(-c2cc(=O)n3nc(C(F)(F)F)c(-c4ccc(Cl)cc4)c3[nH]2)c1 [Compound 50]
IC50 [4, 13]: 2.5 µM

Cc1nn2c(=O)cc(-c3ccc(NC(=O)c4ccccc4)cc3)[nH]c2c1-c1ccc(Cl)cc1 [Compound 48]
IC50 [4, 13]: 2.4 µM

CC(C)(C)c1nn2c(=O)cc(-c3cccc(C(N)=O)c3)[nH]c2c1-c1ccc(Cl)cc1 [Compound 85]
IC50 [4, 13]: 6.6 µM

Cc1nn2c(=O)cc(-c3ccc([N+](=O)[O-])cc3)[nH]c2c1Cc1ccc(Cl)cc1 [Compound 81]
IC50 [4, 13]: 6 µM

O=c1cc(-c2ccccc2Br)[nH]c2c(-c3ccc(Cl)cc3)c(C(F)(F)F)nn12 [Compound 62]
IC50 [4, 13]: 3.3 µM

COCC(=O)Nc1ccc(-c2cc(=O)n3nc(C(F)(F)F)c(-c4ccc(Cl)cc4)c3[nH]2)cc1 [Compound 75]
IC50 [4, 13]: 4.4 µM

COc1ccc(C(=O)Nc2cccc(/C=C3\C(=O)NC(=O)c4ccccc43)c2)cc1 [Compound 125]
IC50 [4, 13]: 6.5 µM

Nc1scc2c(-c3nnc(Nc4ccccc4)s3)nn(-c3ccc([N+](=O)[O-])cc3)c(=O)c12 [Compound 123]
IC50 [4, 13]: 5.1 µM

O=c1cc(Cc2ccccc2)[nH]c2c(-c3ccc(Cl)c(Cl)c3)c(C(F)(F)F)nn12 [Compound 9]
IC50 [4, 13]: 0.84 µM
IC50 [4, 14]: 1.6 µM

Cc1nn2c(=O)cc(-c3ccc(NC(=O)Cc4ccccc4)cc3)[nH]c2c1-c1ccc(Cl)cc1 [Compound 41]
IC50 [4, 13]: 1.9 µM

O=c1cc(-c2ccc(-c3ccncc3)cc2)[nH]c2c(-c3ccc(Cl)cc3)c(C(F)(F)F)nn12 [Compound 47]
IC50 [4, 13]: 2.4 µM
